According to article PMC4335020, “Single Oral Dose Pharmacokinetics of Decursin and Decursinol Angelate in Healthy Adult Men and Women” (PLoS ONE, 2015):
Where two headings read alike, the source gives them in different places.

Test: Single oral dose human plasma pharmacokinetics of D, DA and DOH after Cogni.Q
Type: in vivo
Conditions: for Cmax / Tmax / half-life / AUC(0-t): plasma
Excerpt: Ten healthy male and 10 female subjects were recruited by public announcement in Amarillo, TX, from January 2013 to April 2013 (see Fig. 1 CONSORT diagram). The sample size for each gender was chosen without power calculation due to the lack of prior knowledge of PK parameter variance in humans. After receiving informed consent verbally and in writing, the health status of each candidate was confirmed by health questionnaire, plasma biochemistry (hepatic and renal functions), complete blood cell count (CBC), and a physical examination by a participating academic physician. Subjects with diabetes, or pregnant, perinatal and breastfeeding women were excluded. For the 48 hours preceding study visit until the final blood draw, all subjects were instructed to avoid taking any prescription or nonprescription drugs, vitamins, and herbal/dietary supplements. Each subject was compensated for participating in the study per TTUHSC IRB approved rate.
Eligible subjects arrived at our clinical facility at 0700 (7:00 am) on the test day after a fast beginning at 2200 (10:00 pm) the previous night. After a brief review of vital signs, the nurse placed an intravenous (IV) line with saline drip in one arm of each subject. A baseline pre-dose (hour 0) blood sample was drawn through the IV line; after that subjects swallowed four Cogni.Q vegicaps with 240 mL of water at hour 0 under direct supervision. Subjects stayed at the clinical facility in their room for the next 12 hours, returning at 24 and 48 hours. Blood was drawn at baseline (hour 0) and at 0.5, 1, 2, 3, 4, 6, 8, 12, 24 and 48 hours after dosing into Vacutainer Blood Collection Tube (Becton-Dickinson, Franklin Lakes, NJ. Product Number: 367874, Sodium heparin was used as anti-coagulant). Water was allowed as desired except for within the first hour after Cogni.Q consumption. All subjects received standardized meals at post-dose hours 4.5 and 9.5 but no food was allowed for at least the first 4 hours post-dose.
Plasma was prepared by centrifuging the heparinized blood at 1000 g for 15 minutes at room temperature. Urine samples (40mL) were collected within time spans of 0–4, 4–8, 8–12 and 12–24 hours (total volume of urine was recorded). All plasma and urine samples were put on dry ice immediately and then stored at -80°C freezer until analysis.
Plasma samples were extracted with a validated solid supported liquid extraction (SLE) method facilitated with a positive pressure manifold (Biotage, Charlotte, NC). Briefly, 100 μL of plasma sample was spiked with 5 μL of 10 ng/μL prednisolone (IS), diluted with 200 μL of LC-MS grade water, mixed and loaded onto ISOLUTE SLE+ 400 μL Array Well cartridges (Biotage, Charlotte, NC). A pulse of minimum positive pressure was applied to facilitate the samples absorption into the cartridges. After the samples were allowed to absorb for 5 min, the compounds were eluted with 2×500 μL tert-butyl methyl ether. The eluent was dried in a Speedvac and the resulting residue was reconstituted in 50 μL of methanol for UHPLC-MS/MS analysis.
Eight-point calibration curves were constructed for D, DA and DOH, at concentrations of 0.1, 0.5, 1, 5, 10, 20, 50 and 100 μg/L for D and DA, and at concentrations of 1, 5, 10, 50, 100, 200, 500 and 1000 μg/L for DOH, respectively. The linear range was 0.1–100 μg/L (0.3–300 nmol/L), 0.1–100 μg/L (0.3–300 nmol/L) and 1–1000 μg/L (4–4000 nmol/L) for D, DA and DOH, respectively. The inter- and intra-assay CV were lower than 6.5% and the accuracy was between 90–105%. Calibration curve was run for each batch of samples analyzed. The mean calibration curve correlation coefficient (r) for D, DA and DOH was 0.999, 0.999 and 0.998, respectively (data from 7–10 calibration curves). In addition, 70% of the plasma samples were extracted and analyzed twice, the data from two replicate analyses were nearly identical and combined for final data analyses and presentation. […]

- Cmax (all human subjects n = 20, single oral dose 4 Cogni.Q vegicaps (119 mg D, 77 mg DA), read-out: Cmax, nmol/L Mean (SD)): 48.1 nmol/L
- variation in C max and AUC0–48h among individual subjects (all subjects): ≤ 60 fold
- Cmax (both sexes, human, oral, 4 Cogni.Q vegicaps, n=20 (S1 Table), read-out: Cmax, nM, Grand Mean): 48.1 nmol/L
- Tmax (both sexes, human, oral, 4 Cogni.Q vegicaps, n=20 (S1 Table), read-out: Tmax, h, Grand Mean): 2.4 h
- half-life (both sexes, human, oral, all subjects, outliers excluded (S1 Table), read-out: Terminal t1/2, h, Grand Mean (converted)): 19.3 h
- AUC(0-t) (both sexes, human, oral, n=20 (S1 Table), read-out: AUC0-48h, Grand Mean): 335 nmol·h/L
- Cmax (both sexes, human, po, all human subjects n = 20, single oral dose 4 Cogni.Q vegicaps (119 mg D, 77 mg DA), read-out: Cmax, nmol/L Mean (SD)): 48 nmol/L
- Tmax (both sexes, human, po, all human subjects n = 20, single oral dose 4 Cogni.Q vegicaps (119 mg D, 77 mg DA), read-out: Tmax, h, Mean (SD)): 2.4 h
- AUC(0-t) (both sexes, human, po, all human subjects n = 20, single oral dose Cogni.Q, plasma (Table 2), read-out: AUC0–48h, nmol/L, Mean (SD)): 335 nmol·h/L
- half-life (both sexes, human, po, all human subjects, four outlier subjects excluded, single oral dose Cogni.Q, read-out: Terminal t1/2, h, Mean (SD) (converted)): 19.3 h
- AUC(0-t) (both sexes, human, po, twenty healthy subjects, single oral dose Cogni.Q, plasma (abstract), read-out: mean area under the curve (AUC0-48h)): 335 nmol·h/L
- AUC(0-t) (female, human, oral, 4 Cogni.Q vegicaps, Women n=10 (S1 Table), read-out: AUC0-48h, Mean, F): 344 nmol·h/L
- Cmax (female, human, oral, 4 Cogni.Q vegicaps, Women n=10 (S1 Table), read-out: Cmax, nM, Mean, F): 43.9 nmol/L
- Tmax (female, human, oral, Women n=10 (S1 Table), read-out: Tmax, h, Mean, F): 2.7 h
- half-life (female, human, oral, Women, outliers excluded (S1 Table), read-out: Terminal t1/2, h, Mean, F (converted)): 23.7 h
- AUC(0-t) (female, human, po, Women N = 10, single oral dose Cogni.Q, read-out: AUC0–48h, h.nmol/L Mean (SD)): 344 nmol·h/L
- Cmax (female, human, po, Women N = 10, single oral dose Cogni.Q, read-out: Cmax, nmol/L, Mean (SD)): 43.9 nmol/L
- Tmax (female, human, po, Women N = 10, single oral dose Cogni.Q, read-out: Tmax, h, Mean (SD)): 2.7 h
- half-life (female, human, po, Women, outlier subjects excluded, single oral dose Cogni.Q, read-out: T1/2, h, terminal Mean (SD) (converted)): 23.7 h
- half-life (human, oral, 4 Cogni.Q vegicaps, subject S1 (115 lb), outlier, excluded from means, read-out: Terminal t1/2, h (converted)): 20.2 h
- AUC(0-t) (human, oral, 4 Cogni.Q vegicaps, subject S1 (115 lb), read-out: AUC0-48h): 190 nmol·h/L
- Cmax (human, oral, 4 Cogni.Q vegicaps, subject S1 (115 lb), read-out: Cmax): 23.4 nmol/L
- Tmax (human, oral, 4 Cogni.Q vegicaps, subject S1 (115 lb), read-out: Tmax): 2 h
- AUC(0-t) (human, oral, 4 Cogni.Q vegicaps, subject S2 (194 lb), read-out: AUC0-48h): 97.5 nmol·h/L
- Cmax (human, oral, 4 Cogni.Q vegicaps, subject S2 (194 lb), read-out: Cmax): 13.4 nmol/L
- half-life (human, oral, 4 Cogni.Q vegicaps, subject S2 (194 lb), read-out: Terminal t1/2, h (converted)): 38.6 h
- Tmax (human, oral, 4 Cogni.Q vegicaps, subject S2 (194 lb), read-out: Tmax): 3 h
- half-life (human, oral, 4 Cogni.Q vegicaps, subject S3 (170 lb), outlier, excluded from means, read-out: Terminal t1/2, h (converted)): 31.4 h
- AUC(0-t) (human, oral, 4 Cogni.Q vegicaps, subject S3 (170 lb), read-out: AUC0-48h): 142 nmol·h/L
- Cmax (human, oral, 4 Cogni.Q vegicaps, subject S3 (170 lb), read-out: Cmax): 27.2 nmol/L
- Tmax (human, oral, 4 Cogni.Q vegicaps, subject S3 (170 lb), read-out: Tmax): 6 h
- AUC(0-t) (human, oral, 4 Cogni.Q vegicaps, subject S4 (170 lb), read-out: AUC0-48h): 1060 nmol·h/L
- Cmax (human, oral, 4 Cogni.Q vegicaps, subject S4 (170 lb), read-out: Cmax): 100 nmol/L
- half-life (human, oral, 4 Cogni.Q vegicaps, subject S4 (170 lb), read-out: Terminal t1/2, h (converted)): 17.7 h
- Tmax (human, oral, 4 Cogni.Q vegicaps, subject S4 (170 lb), read-out: Tmax): 2 h
- AUC(0-t) (human, oral, 4 Cogni.Q vegicaps, subject S5 (161 lb), read-out: AUC0-48h): 294 nmol·h/L
- Cmax (human, oral, 4 Cogni.Q vegicaps, subject S5 (161 lb), read-out: Cmax): 21.4 nmol/L
- half-life (human, oral, 4 Cogni.Q vegicaps, subject S5 (161 lb), read-out: Terminal t1/2, h (converted)): 12 h
- Tmax (human, oral, 4 Cogni.Q vegicaps, subject S5 (161 lb), read-out: Tmax): 1 h
- AUC(0-t) (human, oral, 4 Cogni.Q vegicaps, subject S6 (120 lb), read-out: AUC0-48h): 696 nmol·h/L
- Cmax (human, oral, 4 Cogni.Q vegicaps, subject S6 (120 lb), read-out: Cmax): 84.3 nmol/L
- half-life (human, oral, 4 Cogni.Q vegicaps, subject S6 (120 lb), read-out: Terminal t1/2, h (converted)): 16.2 h
- Tmax (human, oral, 4 Cogni.Q vegicaps, subject S6 (120 lb), read-out: Tmax): 3 h
- AUC(0-t) (human, oral, 4 Cogni.Q vegicaps, subject S7 (180 lb), read-out: AUC0-48h): 432 nmol·h/L
- Cmax (human, oral, 4 Cogni.Q vegicaps, subject S7 (180 lb), read-out: Cmax): 74.3 nmol/L
- half-life (human, oral, 4 Cogni.Q vegicaps, subject S7 (180 lb), read-out: Terminal t1/2, h (converted)): 17.4 h
- Tmax (human, oral, 4 Cogni.Q vegicaps, subject S7 (180 lb), read-out: Tmax): 4 h
- AUC(0-t) (human, oral, 4 Cogni.Q vegicaps, subject S8 (160 lb), read-out: AUC0-48h): 1600 nmol·h/L
- Cmax (human, oral, 4 Cogni.Q vegicaps, subject S8 (160 lb), read-out: Cmax): 183 nmol/L
- half-life (human, oral, 4 Cogni.Q vegicaps, subject S8 (160 lb), read-out: Terminal t1/2, h (converted)): 16.7 h
- Tmax (human, oral, 4 Cogni.Q vegicaps, subject S8 (160 lb), read-out: Tmax): 3 h
- AUC(0-t) (human, oral, 4 Cogni.Q vegicaps, subject S9 (158 lb), read-out: AUC0-48h): 80.8 nmol·h/L
- Cmax (human, oral, 4 Cogni.Q vegicaps, subject S9 (158 lb), read-out: Cmax): 13.6 nmol/L
- half-life (human, oral, 4 Cogni.Q vegicaps, subject S9 (158 lb), read-out: Terminal t1/2, h (converted)): 19.1 h
Structure (SMILES): C/C=C(/C)C(=O)O[C@H]1Cc2cc3ccc(=O)oc3cc2OC1(C)C [DA, decursinol angelate]
